Experimental data reported in PMC9897792, “Discovery of novel 2-(4-(benzyloxy)-5-(hydroxyl) phenyl) benzothiazole derivatives as multifunctional MAO-B inhibitors for the treatment of Parkinson’s disease” (Journal of Enzyme Inhibition and Medicinal Chemistry, 2023).
Several values for one entry are separate records, joined by “and”; a condition that tells them apart may be missing. Equal entries are not always repeated.

How the values were obtained:
[1] = Parallel artificial membrane permeation assay for blood-brain barrier (PAMPA-BBB); assay type: in vitro ADME
[2] = Oxygen radical absorbance capacity assay with fluorescein (ORAC-FL); conditions: Trolox as standard
Procedure: Oxygen radical absorbance capacity assay which used fluorescein (ORAC-FL) was performed to measure the antioxidant activities of 2-(4-(benzyloxy)-5-(hydroxyl) phenyl) benzothiazole derivatives. […] It reflected that introduction of alkyl substituents on benzyloxy ring was more beneficial for the improvement of in vitro antioxidant activity. However, the position and number of substituents seem to have little influence on the antioxidative activities.
Test compounds solution (20 µL, 10 µM) and fluorescein solution (120 µL, 250 nM) were added to a black 96-wells plate in order. The mixture was incubated for 15 min at 37 °C. Then, AAPH solution (60 µL, 40 mM) was added through an automatic sampler. The fluorescence was recorded with excitation and emission wavelengths at 485 and 535 nm on the multifunctional enzyme marker (Thermo Scientific), and the area under the curve (AUC) was calculated automatically. Trolox was used as a reference, and the antioxidant activities of the compounds were expressed as Trolox equivalent. The test compound solution was replaced with PBS (20 µL) in blank well. The antioxidant activities of the test compounds were calculated by the formula: [(AUCsample − AUCblank)/(AUCtrolox − AUCblank)] × [(Trolox concentration/test sample concentration)].

MAO-B [3] = biological target: T1, MAO-B (Homo sapiens, UniProt P27338); experiment: MAO-B inhibition, kynuramine method; assay type: biochemical
T1 sequence (P27338 1-520): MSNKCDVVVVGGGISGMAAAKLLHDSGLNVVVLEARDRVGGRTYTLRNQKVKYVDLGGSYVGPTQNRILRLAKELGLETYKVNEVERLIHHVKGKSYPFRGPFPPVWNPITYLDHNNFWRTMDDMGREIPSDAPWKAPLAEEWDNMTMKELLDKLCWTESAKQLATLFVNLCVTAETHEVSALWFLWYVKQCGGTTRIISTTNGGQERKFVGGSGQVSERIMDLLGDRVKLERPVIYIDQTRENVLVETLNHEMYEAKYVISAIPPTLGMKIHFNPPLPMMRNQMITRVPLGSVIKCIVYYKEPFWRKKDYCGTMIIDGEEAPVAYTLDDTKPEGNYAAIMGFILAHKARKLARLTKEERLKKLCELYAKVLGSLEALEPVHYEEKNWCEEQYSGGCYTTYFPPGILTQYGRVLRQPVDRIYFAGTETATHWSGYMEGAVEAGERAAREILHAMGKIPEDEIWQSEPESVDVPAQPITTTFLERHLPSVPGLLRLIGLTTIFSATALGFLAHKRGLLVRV

[4] = Stoichiometry of 3h-Fe^2+ complex by molar ratio method; assay type: physicochemical; conditions: absorbance at 385 nm; FeSO4 0–187.5 µM; 3h 75 µM in methanol
Procedure: Because Fe^2+ played a crucial role in the pathogenesis of PD, the stoichiometry of 3h-Fe^2+ complex was further measured by using molar ratio method. 3h was incubated with various concentrations of FeSO4 (0–187.5 µM), and the electronic spectra were detected.
As the Fe^2+ played important role in the pathogenetic process of PD, the stoichiometry of 3h-Fe^2+ complex was detected by using molar ratio method. In detail, test compound solution (1.0 ml, 75 µM in methanol) was incubated with Fe^2+ solution (1.0 ml, 7.5–187.5 µM in methanol) at 37 °C for 30 min. Then, the mixture was removed from the vial to a quartz cell, and the absorbance of mixture at 200–800 nm was measured by using UV spectrophotometer (Shimadzu UV-1900i).

MAO-B [5] = biological target: T1, MAO-B; experiment: Kinetic study of MAO-B inhibition (Lineweaver-Burk plots); assay type: biochemical
Procedure: Kinetic study[35]^,[36] was conducted to figure out the MAO-B inhibitory mechanism of 2-(4-(benzyloxy)-5-(hydroxyl) phenyl) benzothiazole derivatives, with 3h as the test compound. […] The graphical of the reciprocal Lineweaver-Burk plots was depicted in Figure 2(A).
The kinetic study of 3h was conducted by the method which is similar with the inhibition experiment of MAOs. Different concentrations of 3h (0.124, 0.062, and 0.031 µM) and kynuramine (15, 30, 60, and 90 µM) solutions were selected. The control experiment was performed without 3h. The method of data analysis has been described previously.

- Pe ([1]; PBS/EtOH (70:30), mean ± SD of three independent experiments): 4.03 ×10⁻⁶ cm/s
- Papp at 18 h, 100 µg/mL ([1]; PBS/EtOH (70:30), mean ± SD of three independent experiments, read-out: Pe): 4.03 ± 0.14 ×10⁻⁶ cm/s
- IC50 (MAO-B [3]): 62 ± 5 nM
- molar ratio at intersection of straight lines (molar ratio method) [4]: 1.65
- MAO-B inhibition pattern (MAO-B [5]; Lineweaver-Burk plots): competitive
- Ki (MAO-B [5]; from slopes of Lineweaver-Burk plots vs. inhibitor concentration, kynuramine substrate, read-out: competitive inhibition constant (Ki)): 102 nM
Structure (SMILES): Oc1cc(OCc2ccc(F)cc2)ccc1-c1nc2ccccc2s1 [3h, 2-(Benzo[d]thiazol-2-yl)-5-((4-fluorobenzyl)oxy)phenol]
- Prediction of penetration into CNS [1]: CNS+ (High BBB permeation predicted (CNS +) Pe> 3.44)
- ORAC [2]: 2.27 Trolox equivalents and 2.27 ± 0.08 Trolox equivalents
